In ChEMBL document CHEMBL4765305, “Elephantopinolide A-P, germacrane-type sesquiterpene lactones from Elephantopus scaber induce apoptosis, autophagy and G2/M phase arrest in hepatocellular carcinoma cells” (Eur J Med Chem, 2020):
Calls of active or inactive are those of the source. The calls are words filed in the database; no cut-off is given here.

Tests used:
Hep 3B2 [1] = assay: Induction of autophagy in human Hep3B cells at 6 uM by MDC staining based flow cytometry analysis (reference value: 3.52%); assay type: functional
Hep 3B2 [2] = assay: Induction of autophagy in human Hep3B cells at 3 uM by MDC staining based flow cytometry analysis (reference value: 3.52%); assay type: functional
HepG2 [3] = assay: Anti-hepatoma activity against human HepG2 cells assessed as cell growth inhibition by MTT assay; assay type: functional, cell-based
Hep 3B2 [4] = assay: Anti-hepatoma activity against human Hep3B cells assessed as cell growth inhibition by MTT assay; assay type: functional, cell-based
HepG2 [5] = assay: Induction of apoptosis in human HepG2 cells assessed as cell shrinkage upto 9 uM incubated for 48 hrs by phase contrast microscopy; assay type: functional, cell-based; conditions: dose microM <=9, time 48.0 hrs
Hep 3B2 [6] = assay: Induction of apoptosis in human Hep3B cells assessed as cell shrinkage upto 9 uM incubated for 48 hrs by phase contrast microscopy; assay type: functional, cell-based; conditions: dose microM <=9, time 48.0 hrs
HepG2 [7] = assay: Induction of apoptosis in human HepG2 cells assessed as membrane blebbing upto 9 uM incubated for 48 hrs by phase contrast microscopy; assay type: functional, cell-based; conditions: dose microM <=9, time 48.0 hrs
Hep 3B2 [8] = assay: Induction of apoptosis in human Hep3B cells assessed as membrane blebbing upto 9 uM incubated for 48 hrs by phase contrast microscopy; assay type: functional, cell-based; conditions: dose microM <=9, time 48.0 hrs
HepG2 [9] = assay: Induction of apoptosis in human HepG2 cells assessed as nuclear condensation at 3 to 9 uM incubated for 48 hrs by Hoechst 33258 staining based fluorescence microscopy analysis; assay type: functional, cell-based; conditions: dose 3-9 µM
HepG2 [10] = assay: Induction of apoptosis in human HepG2 cells assessed as nuclear fragmentation at 3 to 9 uM incubated for 48 hrs by Hoechst 33258 staining based fluorescence microscopy analysis; assay type: functional, cell-based; conditions: dose 3-9 µM
Hep 3B2 [11] = assay: Induction of apoptosis in human Hep3B cells assessed as nuclear fragmentation at 3 to 9 uM incubated for 48 hrs by Hoechst 33258 staining based fluorescence microscopy analysis; assay type: functional, cell-based; conditions: dose 3-9 µM
Hep 3B2 [12] = assay: Induction of apoptosis in human Hep3B cells assessed as early apoptotic cells at 6 uM incubated for 48 hrs by AnnexinV-FITC and propidium iodide staining based flow cytometry analysis (reference value: 3.05%); assay type: functional
Hep 3B2 [13] = assay: Induction of apoptosis in human Hep3B cells assessed as late apoptotic cells at 6 uM incubated for 48 hrs by AnnexinV-FITC and propidium iodide staining based flow cytometry analysis (reference value: 3.32%); assay type: functional
HepG2 [14] = assay: Induction of apoptosis in human HepG2 cells assessed as early apoptotic cells at 3 uM incubated for 48 hrs by AnnexinV-FITC and propidium iodide staining based flow cytometry analysis (reference value: 2.45%); assay type: functional
HepG2 [15] = assay: Induction of apoptosis in human HepG2 cells assessed as early apoptotic cells at 6 uM incubated for 48 hrs by AnnexinV-FITC and propidium iodide staining based flow cytometry analysis (reference value: 2.45%); assay type: functional
HepG2 [16] = assay: Induction of apoptosis in human HepG2 cells assessed as early apoptotic cells at 9 uM incubated for 48 hrs by AnnexinV-FITC and propidium iodide staining based flow cytometry analysis (reference value: 2.45%); assay type: functional
HepG2 [17] = assay: Induction of apoptosis in human HepG2 cells assessed as late apoptotic cells at 3 uM incubated for 48 hrs by AnnexinV-FITC and propidium iodide staining based flow cytometry analysis (reference value: 2.46%); assay type: functional
HepG2 [18] = assay: Induction of apoptosis in human HepG2 cells assessed as late apoptotic cells at 9 uM incubated for 48 hrs by AnnexinV-FITC and propidium iodide staining based flow cytometry analysis (reference value: 2.46%); assay type: functional
HepG2 [19] = assay: Induction of apoptosis in human HepG2 cells assessed as increase in caspase-3 activity measured after 2 hrs by microplate reader; assay type: functional, cell-based; conditions: dose 3-9 µM
Hep 3B2 [20] = assay: Induction of apoptosis in human Hep3B cells assessed as increase in caspase-3 activity measured after 2 hrs by microplate reader; assay type: functional, cell-based; conditions: dose 3-9 µM
HepG2 [21] = assay: Induction of apoptosis in human HepG2 cells assessed as increase in cleaved caspase-3 activity measured by western blot analysis; assay type: functional, cell-based; conditions: dose 3-9 µM
HepG2 [22] = assay: Induction of apoptosis in human HepG2 cells assessed as increase in FADD level measured by western blot analysis; assay type: functional, cell-based; conditions: dose 3-9 µM
HepG2 [23] = assay: Induction of apoptosis in human HepG2 cells assessed as decrease in PARP level at 3 to 9 uM measured by western blot analysis; assay type: functional, cell-based; conditions: dose 3-9 µM
HepG2 [24] = assay: Induction of apoptosis in human HepG2 cells assessed as decrease in Bcl-2 level measured by western blot analysis; assay type: functional, cell-based; conditions: dose 3-9 µM
HepG2 [25] = assay: Induction of apoptosis in human HepG2 cells assessed as increase in Bax level at 3 to 9 uM measured by western blot analysis; assay type: functional, cell-based; conditions: dose 3-9 µM
Hep 3B2 [26] = assay: Induction ROS generation in human Hep3B cells assessed as intracellular ROS level measured after 4 hrs by H2DCF-DA probe based flow cytometry (reference value: 4.24 %); assay type: functional
Hep 3B2 [27] = assay: Induction ROS generation in human Hep3B cells assessed as intracellular ROS level measured after 2 hrs by H2DCF-DA probe based flow cytometry (reference value: 4.24 %); assay type: functional
Hep 3B2 [28] = assay: Induction ROS generation in human Hep3B cells assessed as intracellular ROS level measured after 1 hrs by H2DCF-DA probe based flow cytometry (reference value: 4.24 %); assay type: functional
Hep 3B2 [29] = assay: Induction ROS generation in human Hep3B cells assessed as intracellular ROS level measured after 30 mins by H2DCF-DA probe based flow cytometry (reference value: 4.24 %); assay type: functional; conditions: 0.5 h
Hep 3B2 [30] = assay: Induction of mitochondrial membrane potential loss in human Hep3B cells measured after 48 hrs by JC-1 staining based flow cytometry analysis; assay type: functional, cell-based; conditions: dose 3-9 µM
HepG2 [31] = assay: Induction ROS generation in human HepG2 cells assessed as intracellular ROS level measured after 4 hrs by H2DCF-DA probe based flow cytometry (reference value: 5.05%); assay type: functional
HepG2 [32] = assay: Induction ROS generation in human HepG2 cells assessed as intracellular ROS level measured after 2 hrs by H2DCF-DA probe based flow cytometry (reference value: 5.05%); assay type: functional
HepG2 [33] = assay: Induction of mitochondrial membrane potential loss in human HepG2 cells measured after 48 hrs by JC-1 staining based flow cytometry analysis; assay type: functional, cell-based; conditions: dose 3-9 µM
HepG2 [34] = assay: Induction ROS generation in human HepG2 cells assessed as intracellular ROS level measured after 15 mins by H2DCF-DA probe based flow cytometry (reference value: 5.05%); assay type: functional; conditions: 0.25 h
Hep 3B2 [35] = assay: Induction of autophagy in human Hep3B cells at 9 uM by MDC staining based flow cytometry analysis (reference value: 3.52%); assay type: functional
HepG2 [36] = assay: Induction of autophagy in human HepG2 cells at 3 uM by MDC staining based flow cytometry analysis (reference value: 4.46%); assay type: functional
HepG2 [37] = assay: Induction of autophagy in human HepG2 cells at 6 uM by MDC staining based flow cytometry analysis (reference value: 4.46%); assay type: functional
HepG2 [38] = assay: Induction of autophagy in human HepG2 cells at 9 uM by MDC staining based flow cytometry analysis (reference value: 4.46%); assay type: functional
HepG2 [39] = assay: Induction of cell cycle arrest in human HepG2 cells assessed as accumulation at G2/M phase by PI-staining based flow cytometric analysis; assay type: functional
HepG2 [40] = assay: Activation of ERK phosphorylation in human HepG2 cells by Western blot analysis; assay type: cell-based; conditions: filed as activator, dose 3-9 µM
HepG2 [41] = assay: Activation of JNK phosphorylation in human HepG2 cells by Western blot analysis; assay type: cell-based; conditions: filed as activator, dose 3-9 µM

Q: Which results are given for `C=C(C)C(=O)O[C@H]1CC2=C[C@@H](C[C@@]3(C)O[C@H]3[C@H]3OC(=O)C(=C)[C@@H]31)OC2=O`?
A: Activity (Hep 3B2 [1]): 39.2%; Activity (Hep 3B2 [2]): 15.7%; IC50 (HepG2 [3]): 2.83 µM; IC50 (Hep 3B2 [4]): 1.98 µM; Activity (HepG2 [5]): Active; Activity (Hep 3B2 [6]): Active; Activity (HepG2 [7]): Active; Activity (Hep 3B2 [8]): Active; Activity (HepG2 [9]): Active; Activity (HepG2 [10]): Active; Activity (Hep 3B2 [11]): Active; Activity (Hep 3B2 [12]): 18.2%; Activity (Hep 3B2 [13]): 11.9%; Activity (HepG2 [14]): 14.9%; Activity (HepG2 [15]): 33.7%; Activity (HepG2 [16]): 37.8%; Activity (HepG2 [17]): 4.56%; Activity (HepG2 [18]): 29.1%; Activity (HepG2 [19]): Dose-dependent effect; Activity (Hep 3B2 [20]): Dose-dependent effect; Activity (HepG2 [21]): Dose-dependent effect; Activity (HepG2 [22]): Dose-dependent effect; Activity (HepG2 [23]): Active; Activity (HepG2 [24]): Dose-dependent effect; Activity (HepG2 [25]): Active; Activity (Hep 3B2 [26]): 5.04%; Activity (Hep 3B2 [27]): 7.42%; Activity (Hep 3B2 [28]): 9.85%; Activity (Hep 3B2 [29]): 22.8%; Activity (Hep 3B2 [30]): Dose-dependent effect; Activity (HepG2 [31]): 6.58%; Activity (HepG2 [32]): 13.1%; Activity (HepG2 [33]): Dose-dependent effect; Activity (HepG2 [34]): 19.9%; Activity (Hep 3B2 [35]): 69.6%; Activity (HepG2 [36]): 9.52%; Activity (HepG2 [37]): 28.2%; Activity (HepG2 [38]): 65.9%; Activity (HepG2 [39]): Active; Activity (HepG2 [40]): Dose-dependent effect; Activity (HepG2 [41]): Dose-dependent effect
